Activity calls are given as the source filed them. How the calls were made is not given here.
Tests used:
Experiment in all cases: kinase panel binding selectivity, selectivity assay, biochemical, KINOMEscan (AID 1982)
[1] = target: 3-phosphoinositide-dependent protein kinase 1 (Homo sapiens) (UniProt O15530); conditions: KINOMEscan 353-kinase binding panel, qPCR; PDPK1; at 10 µM; active compounds read low
[2] = test system: ABL2; conditions: KINOMEscan 353-kinase binding panel, qPCR, at 10 µM, active compounds read low
[3] = test system: ACVR1B; conditions: KINOMEscan 353-kinase binding panel, qPCR, at 10 µM, active compounds read low
[4] = target: ALK tyrosine kinase receptor (Homo sapiens) (UniProt Q9UM73); conditions: KINOMEscan 353-kinase binding panel, qPCR, at 10 µM, active compounds read low
[5] = test system: ARK5; conditions: KINOMEscan 353-kinase binding panel, qPCR, at 10 µM, active compounds read low
[6] = test system: BIKE; conditions: KINOMEscan 353-kinase binding panel, qPCR, at 10 µM, active compounds read low
[7] = test system: BMPR1A; conditions: KINOMEscan 353-kinase binding panel, qPCR, at 10 µM, active compounds read low
[8] = test system: CDC2L1; conditions: KINOMEscan 353-kinase binding panel, qPCR, at 10 µM, active compounds read low
[9] = test system: CDC2L2; conditions: KINOMEscan 353-kinase binding panel, qPCR, at 10 µM, active compounds read low
[10] = test system: CDKL2; conditions: KINOMEscan 353-kinase binding panel, qPCR, at 10 µM, active compounds read low
[11] = target: Cyclin-dependent kinase 5 (Homo sapiens) (UniProt Q00535); conditions: KINOMEscan 353-kinase binding panel, qPCR; CDK5; at 10 µM; active compounds read low
[12] = test system: DCAMKL3; conditions: KINOMEscan 353-kinase binding panel, qPCR, at 10 µM, active compounds read low
[13] = test system: DMPK2; conditions: KINOMEscan 353-kinase binding panel, qPCR, at 10 µM, active compounds read low
[14] = target: Death-associated protein kinase 3 (Homo sapiens) (UniProt O43293); conditions: KINOMEscan 353-kinase binding panel, qPCR; DAPK3; at 10 µM; active compounds read low
[15] = test system: EPHA5; conditions: KINOMEscan 353-kinase binding panel, qPCR, at 10 µM, active compounds read low
[16] = test system: EPHA8; conditions: KINOMEscan 353-kinase binding panel, qPCR, at 10 µM, active compounds read low
[17] = target: High affinity nerve growth factor receptor (Homo sapiens) (UniProt P04629); conditions: KINOMEscan 353-kinase binding panel, qPCR; TRKA; at 10 µM; active compounds read low
[18] = test system: LOK; conditions: KINOMEscan 353-kinase binding panel, qPCR, at 10 µM, active compounds read low
[19] = target: MAP/microtubule affinity-regulating kinase 4 (Homo sapiens) (UniProt Q96L34); conditions: KINOMEscan 353-kinase binding panel, qPCR; MARK4; at 10 µM; active compounds read low
[20] = test system: MLK3; conditions: KINOMEscan 353-kinase binding panel, qPCR, at 10 µM, active compounds read low
[21] = test system: PKMYT1; conditions: KINOMEscan 353-kinase binding panel, qPCR, at 10 µM, active compounds read low
[22] = target: RAC-alpha serine/threonine-protein kinase (Homo sapiens) (UniProt P31749); conditions: KINOMEscan 353-kinase binding panel, qPCR; AKT1; at 10 µM; active compounds read low
[23] = target: RAC-gamma serine/threonine-protein kinase (Homo sapiens) (UniProt Q9Y243); conditions: KINOMEscan 353-kinase binding panel, qPCR; AKT3; at 10 µM; active compounds read low
[24] = target: RAF proto-oncogene serine/threonine-protein kinase (Homo sapiens) (UniProt P04049); conditions: KINOMEscan 353-kinase binding panel, qPCR; RAF1; at 10 µM; active compounds read low
[25] = target: Receptor tyrosine-protein kinase erbB-4 (Homo sapiens) (UniProt Q15303); conditions: KINOMEscan 353-kinase binding panel, qPCR; ERBB4; at 10 µM; active compounds read low
[26] = test system: SRPK2; conditions: KINOMEscan 353-kinase binding panel, qPCR, at 10 µM, active compounds read low
[27] = target: Serine/threonine-protein kinase 3 (Homo sapiens) (UniProt Q13188); conditions: KINOMEscan 353-kinase binding panel, qPCR; MST2; at 10 µM; active compounds read low
[28] = target: Serine/threonine-protein kinase Chk1 (Homo sapiens) (UniProt O14757); conditions: KINOMEscan 353-kinase binding panel, qPCR; CHEK1; at 10 µM; active compounds read low
[29] = target: Serine/threonine-protein kinase PLK3 (Homo sapiens) (UniProt Q9H4B4); conditions: KINOMEscan 353-kinase binding panel, qPCR, at 10 µM, active compounds read low
[30] = test system: SgK085; conditions: KINOMEscan 353-kinase binding panel, qPCR, at 10 µM, active compounds read low
[31] = test system: TAK1; conditions: KINOMEscan 353-kinase binding panel, qPCR, at 10 µM, active compounds read low
[32] = test system: TGFBR1; conditions: KINOMEscan 353-kinase binding panel, qPCR, at 10 µM, active compounds read low
[33] = test system: TLK1; conditions: KINOMEscan 353-kinase binding panel, qPCR, at 10 µM, active compounds read low
[34] = target: Tyrosine-protein kinase Fyn (Homo sapiens) (UniProt P06241); conditions: KINOMEscan 353-kinase binding panel, qPCR, at 10 µM, active compounds read low
[35] = target: Tyrosine-protein kinase ITK/TSK (Homo sapiens) (UniProt Q08881); conditions: KINOMEscan 353-kinase binding panel, qPCR, at 10 µM, active compounds read low
[36] = test system: ULK3; conditions: KINOMEscan 353-kinase binding panel, qPCR, at 10 µM, active compounds read low
[37] = test system: YANK3; conditions: KINOMEscan 353-kinase binding panel, qPCR, at 10 µM, active compounds read low
[38] = test system: p38-delta; conditions: KINOMEscan 353-kinase binding panel, qPCR, at 10 µM, active compounds read low

Sequence of Receptor tyrosine-protein kinase erbB-4 (Homo sapiens) (Q15303 whole entry, looked up): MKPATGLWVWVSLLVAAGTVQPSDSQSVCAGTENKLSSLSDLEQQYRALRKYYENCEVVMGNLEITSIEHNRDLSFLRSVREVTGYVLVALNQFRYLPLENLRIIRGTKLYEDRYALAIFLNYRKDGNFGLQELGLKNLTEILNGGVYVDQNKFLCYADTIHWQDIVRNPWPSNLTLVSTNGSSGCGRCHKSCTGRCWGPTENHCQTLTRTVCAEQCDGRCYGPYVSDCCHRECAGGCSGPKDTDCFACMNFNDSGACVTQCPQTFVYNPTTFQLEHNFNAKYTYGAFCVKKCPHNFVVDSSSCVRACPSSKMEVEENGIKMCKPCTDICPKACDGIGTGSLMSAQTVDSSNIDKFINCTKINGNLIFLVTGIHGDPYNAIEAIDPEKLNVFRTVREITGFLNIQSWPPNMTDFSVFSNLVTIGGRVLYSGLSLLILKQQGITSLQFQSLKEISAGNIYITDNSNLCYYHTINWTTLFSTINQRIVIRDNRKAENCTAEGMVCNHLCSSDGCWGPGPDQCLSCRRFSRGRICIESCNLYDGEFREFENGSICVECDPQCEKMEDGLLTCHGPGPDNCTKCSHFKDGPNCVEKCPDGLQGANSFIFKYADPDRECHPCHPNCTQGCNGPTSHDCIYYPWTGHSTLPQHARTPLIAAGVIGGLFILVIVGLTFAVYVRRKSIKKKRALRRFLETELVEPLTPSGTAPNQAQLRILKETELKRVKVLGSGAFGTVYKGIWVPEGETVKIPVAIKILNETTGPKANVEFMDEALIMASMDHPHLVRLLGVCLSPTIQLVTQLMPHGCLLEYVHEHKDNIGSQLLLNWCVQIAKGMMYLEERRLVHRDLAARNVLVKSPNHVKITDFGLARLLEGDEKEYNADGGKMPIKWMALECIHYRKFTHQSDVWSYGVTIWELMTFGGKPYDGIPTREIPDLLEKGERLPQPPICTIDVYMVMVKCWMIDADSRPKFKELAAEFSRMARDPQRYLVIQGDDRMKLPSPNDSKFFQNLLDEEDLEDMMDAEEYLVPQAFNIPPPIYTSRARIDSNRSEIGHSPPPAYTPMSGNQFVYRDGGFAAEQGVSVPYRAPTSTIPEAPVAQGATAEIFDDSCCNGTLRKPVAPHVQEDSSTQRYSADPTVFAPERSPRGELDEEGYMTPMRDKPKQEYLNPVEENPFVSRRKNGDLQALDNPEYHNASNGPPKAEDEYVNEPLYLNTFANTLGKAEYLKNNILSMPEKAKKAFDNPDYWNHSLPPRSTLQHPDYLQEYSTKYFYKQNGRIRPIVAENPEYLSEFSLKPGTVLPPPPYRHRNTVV
Sequence of RAC-alpha serine/threonine-protein kinase (Homo sapiens) (P31749 whole entry, looked up): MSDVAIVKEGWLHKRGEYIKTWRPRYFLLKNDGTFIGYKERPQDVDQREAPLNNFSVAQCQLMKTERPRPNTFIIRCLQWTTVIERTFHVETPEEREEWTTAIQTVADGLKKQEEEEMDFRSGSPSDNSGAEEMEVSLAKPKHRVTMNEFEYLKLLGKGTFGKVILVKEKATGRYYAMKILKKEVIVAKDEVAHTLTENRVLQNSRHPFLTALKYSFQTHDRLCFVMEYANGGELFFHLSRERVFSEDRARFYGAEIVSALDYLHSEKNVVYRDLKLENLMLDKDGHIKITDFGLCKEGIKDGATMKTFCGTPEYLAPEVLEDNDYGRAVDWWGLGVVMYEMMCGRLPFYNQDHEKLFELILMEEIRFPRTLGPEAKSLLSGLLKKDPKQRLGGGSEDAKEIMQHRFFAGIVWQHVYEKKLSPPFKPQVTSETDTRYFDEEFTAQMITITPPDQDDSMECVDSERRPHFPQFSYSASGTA
Sequence of 3-phosphoinositide-dependent protein kinase 1 (Homo sapiens) (O15530 whole entry, looked up): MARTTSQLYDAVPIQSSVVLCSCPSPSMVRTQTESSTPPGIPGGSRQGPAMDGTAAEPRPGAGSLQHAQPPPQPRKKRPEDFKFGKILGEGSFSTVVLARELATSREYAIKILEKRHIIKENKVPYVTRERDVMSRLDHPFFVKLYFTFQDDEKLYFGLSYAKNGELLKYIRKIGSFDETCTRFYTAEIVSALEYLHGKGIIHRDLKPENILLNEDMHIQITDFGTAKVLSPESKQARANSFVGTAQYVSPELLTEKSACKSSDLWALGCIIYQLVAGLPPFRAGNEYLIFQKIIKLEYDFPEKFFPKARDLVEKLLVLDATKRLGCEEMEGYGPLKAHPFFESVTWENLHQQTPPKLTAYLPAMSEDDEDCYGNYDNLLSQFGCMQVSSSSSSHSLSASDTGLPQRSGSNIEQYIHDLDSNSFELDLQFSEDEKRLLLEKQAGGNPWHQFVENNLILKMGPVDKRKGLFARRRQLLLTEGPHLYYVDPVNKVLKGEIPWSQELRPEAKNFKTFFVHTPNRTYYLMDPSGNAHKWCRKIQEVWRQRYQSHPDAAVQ
Sequence of Tyrosine-protein kinase Fyn (Homo sapiens) (P06241 whole entry, looked up): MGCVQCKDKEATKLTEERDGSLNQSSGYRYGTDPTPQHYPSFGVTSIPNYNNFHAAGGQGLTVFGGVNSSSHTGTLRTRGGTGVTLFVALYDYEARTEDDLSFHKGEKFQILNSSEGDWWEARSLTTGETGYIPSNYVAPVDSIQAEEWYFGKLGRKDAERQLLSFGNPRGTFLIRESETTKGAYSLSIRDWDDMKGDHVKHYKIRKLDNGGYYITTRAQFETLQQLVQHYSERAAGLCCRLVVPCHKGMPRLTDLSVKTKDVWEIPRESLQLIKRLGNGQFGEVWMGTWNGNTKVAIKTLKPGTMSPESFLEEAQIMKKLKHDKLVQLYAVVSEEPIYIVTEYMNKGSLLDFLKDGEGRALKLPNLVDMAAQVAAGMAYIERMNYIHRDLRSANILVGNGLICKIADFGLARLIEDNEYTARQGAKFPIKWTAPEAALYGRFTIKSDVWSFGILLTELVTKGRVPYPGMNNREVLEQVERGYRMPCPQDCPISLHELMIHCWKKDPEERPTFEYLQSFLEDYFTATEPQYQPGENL
Sequence of Serine/threonine-protein kinase 3 (Homo sapiens) (Q13188 whole entry, looked up): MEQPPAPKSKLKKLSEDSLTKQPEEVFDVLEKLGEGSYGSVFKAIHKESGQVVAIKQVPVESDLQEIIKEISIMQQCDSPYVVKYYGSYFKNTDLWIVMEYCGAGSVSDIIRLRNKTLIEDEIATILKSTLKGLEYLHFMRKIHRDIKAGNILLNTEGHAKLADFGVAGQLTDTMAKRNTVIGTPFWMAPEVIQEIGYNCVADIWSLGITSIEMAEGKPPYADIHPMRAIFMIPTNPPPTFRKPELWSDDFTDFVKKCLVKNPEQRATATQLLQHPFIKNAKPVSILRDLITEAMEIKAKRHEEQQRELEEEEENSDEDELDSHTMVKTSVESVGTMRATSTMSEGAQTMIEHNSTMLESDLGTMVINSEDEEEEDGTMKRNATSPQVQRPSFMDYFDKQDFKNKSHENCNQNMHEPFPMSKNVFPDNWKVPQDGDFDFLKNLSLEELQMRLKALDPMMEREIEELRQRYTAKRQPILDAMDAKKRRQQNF
Sequence of Cyclin-dependent kinase 5 (Homo sapiens) (Q00535 whole entry, looked up): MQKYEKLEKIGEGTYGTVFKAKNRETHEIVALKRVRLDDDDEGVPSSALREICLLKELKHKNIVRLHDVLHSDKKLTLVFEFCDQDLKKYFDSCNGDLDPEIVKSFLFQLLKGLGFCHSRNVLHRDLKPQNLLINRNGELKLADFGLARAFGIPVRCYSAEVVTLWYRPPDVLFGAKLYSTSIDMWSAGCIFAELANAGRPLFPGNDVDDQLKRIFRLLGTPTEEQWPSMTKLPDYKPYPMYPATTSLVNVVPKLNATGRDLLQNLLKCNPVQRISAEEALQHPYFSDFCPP
Sequence of Tyrosine-protein kinase ITK/TSK (Homo sapiens) (Q08881 whole entry, looked up): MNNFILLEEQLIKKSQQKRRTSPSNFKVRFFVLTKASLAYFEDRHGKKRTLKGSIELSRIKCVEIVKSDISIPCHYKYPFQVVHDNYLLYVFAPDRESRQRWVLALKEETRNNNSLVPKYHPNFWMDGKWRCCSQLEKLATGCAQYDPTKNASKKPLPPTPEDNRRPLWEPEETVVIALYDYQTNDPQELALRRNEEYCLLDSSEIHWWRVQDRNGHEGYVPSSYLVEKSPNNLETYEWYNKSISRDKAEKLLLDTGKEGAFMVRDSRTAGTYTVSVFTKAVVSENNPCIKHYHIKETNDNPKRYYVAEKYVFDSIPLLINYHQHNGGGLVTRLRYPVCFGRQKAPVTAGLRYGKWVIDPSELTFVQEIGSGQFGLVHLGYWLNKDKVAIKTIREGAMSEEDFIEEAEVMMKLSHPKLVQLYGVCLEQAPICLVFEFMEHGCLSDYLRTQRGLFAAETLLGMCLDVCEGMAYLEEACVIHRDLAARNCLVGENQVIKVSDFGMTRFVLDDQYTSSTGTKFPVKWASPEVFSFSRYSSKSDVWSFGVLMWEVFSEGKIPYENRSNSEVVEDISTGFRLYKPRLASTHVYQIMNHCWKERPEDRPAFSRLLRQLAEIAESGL
Sequence of Death-associated protein kinase 3 (Homo sapiens) (O43293 whole entry, looked up): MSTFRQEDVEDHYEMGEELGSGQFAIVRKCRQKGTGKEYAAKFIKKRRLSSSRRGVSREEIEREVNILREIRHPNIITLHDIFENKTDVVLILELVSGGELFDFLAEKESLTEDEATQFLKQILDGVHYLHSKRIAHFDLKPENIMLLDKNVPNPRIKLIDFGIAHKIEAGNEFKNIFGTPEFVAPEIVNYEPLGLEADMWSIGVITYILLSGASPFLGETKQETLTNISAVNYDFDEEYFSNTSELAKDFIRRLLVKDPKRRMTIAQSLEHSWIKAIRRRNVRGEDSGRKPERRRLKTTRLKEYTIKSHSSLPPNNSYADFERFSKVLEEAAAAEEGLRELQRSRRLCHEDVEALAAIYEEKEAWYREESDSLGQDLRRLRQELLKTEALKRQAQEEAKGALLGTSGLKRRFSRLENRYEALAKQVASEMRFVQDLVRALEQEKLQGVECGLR

For `Cc1cc2nc(NCCCO)n(CC(=O)c3cc(C(C)(C)C)c(O)c(C(C)(C)C)c3)c2cc1C`, the percent of control binding [1] was 95% (inactive), the percent of control binding [2] was 85% (inactive) and the percent of control binding [3] was 84% (inactive). The percent of control binding [4] was 100% (inactive), the percent of control binding [5] was 100% (inactive) and the percent of control binding [6] was 98% (inactive). For the same compound, the percent of control binding [7] was 97% (inactive), the percent of control binding [8] was 81% (inactive) and the percent of control binding [9] was 100% (inactive). The percent of control binding [10] was 96% (inactive), the percent of control binding [11] was 76% (inactive) and the percent of control binding [12] was 100% (inactive). The percent of control binding [13] was 72% (inactive), the percent of control binding [14] was 100% (inactive) and the percent of control binding [15] was 87% (inactive). The percent of control binding [16] was 88% (inactive), the percent of control binding [17] was 100% (inactive) and the percent of control binding [18] was 95% (inactive). For the same compound, the percent of control binding [19] was 98% (inactive), the percent of control binding [20] was 99% (inactive) and the percent of control binding [21] was 100% (inactive). For the same compound, the percent of control binding [22] was 100% (inactive), the percent of control binding [23] was 100% (inactive) and the percent of control binding [24] was 43% (inactive). The percent of control binding [25] was 100% (inactive), the percent of control binding [26] was 100% (inactive) and the percent of control binding [27] was 100% (inactive). The percent of control binding [28] was 100% (inactive), the percent of control binding [29] was 100% (inactive) and the percent of control binding [30] was 99% (inactive). The percent of control binding [31] was 100% (inactive), the percent of control binding [32] was 92% (inactive) and the percent of control binding [33] was 30%. For the same compound, the percent of control binding [34] was 82% (inactive), the percent of control binding [35] was 100% (inactive) and the percent of control binding [36] was 100% (inactive). The percent of control binding [37] was 100% (inactive) and the percent of control binding [38] was 100% (inactive).
